Source: patent US6573230B1, “Liquid cleaning composition containing an effective biodegradable chelating agent” (Colgate-Palmolive Company, priority 2002, dated 2003)

Key:
[1] = Ready biodegradability of the sequestering agent; conditions: sequestering agent of the composition: A EDDS, B gluconic acid, C IDS Na, D EDTA
[2] = pH / physical stability on ageing; assay type: physicochemical; conditions: stable pH and absence of discoloration

| SMILES | Biodegradability of sequestering agent (ready biodegradability) [1] | pH Physical stability on ageing [2] |
| --- | --- | --- |
| O=C(O)CN(CCN(CC(=O)O)CC(=O)O)CC(=O)O [EDTA, ethylene diamine tetraacetate] | non-ready biodegradable |  |
| O=C(O)C[C@H](NCCN[C@@H](CC(=O)O)C(=O)O)C(=O)O [EDDS, trisodium ethylene diamine-N,N-disuccinate] | biodegradable | imparting product physical stability |
